Values joined by “and” are separate entries in the source; they are usually repeats but may differ in a detail not shown here. Equal entries are not always repeated.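 Interpolation was linear, between the two tested concentrations surrounding the appropriate level; five concentrations were tested over 48 hours in 96-well plates. At the GI50, growth is halved. Definition used: TGI = concentration required for complete inhibition of growth.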
Legend:
Test in all cases: NCI tumour cell line growth inhibition, 48 h
TK-10 renal = system: TK-10 renal
CCRF-CEM leukemia = system: CCRF-CEM leukemia
UO-31 renal = system: UO-31 renal
HOP-62 NSCLC = system: HOP-62 NSCLC
HCT-15 colon = system: HCT-15 colon
SNB-78 CNS = system: SNB-78 CNS
SK-MEL-2 melanoma = system: SK-MEL-2 melanoma
COLO 205 colon = system: COLO 205 colon
A498 renal = system: A498 renal
HCT-116 colon = system: HCT-116 colon
HOP-18 NSCLC = system: HOP-18 NSCLC
OVCAR-8 ovarian = system: OVCAR-8 ovarian
SK-OV-3 ovarian = system: SK-OV-3 ovarian
RXF-631 renal = system: RXF-631 renal
HL-60(TB) leukemia = system: HL-60(TB) leukemia
NCI-H522 lung = system: NCI-H522 lung
UACC-257 melanoma = system: UACC-257 melanoma
HT29 colon = system: HT29 colon
U251 CNS = system: U251 CNS
HCC-2998 colon = system: HCC-2998 colon
M14 melanoma = system: M14 melanoma
OVCAR-3 ovarian = system: OVCAR-3 ovarian
SF-268 CNS = system: SF-268 CNS
LXFL 529 NSCLC = system: LXFL 529 NSCLC
KM20L2 colon = system: KM20L2 colon
SF-295 CNS = system: SF-295 CNS
UACC-62 melanoma = system: UACC-62 melanoma
NCI-H460 lung = system: NCI-H460 lung
RPMI-8226 leukemia = system: RPMI-8226 leukemia
NCI-H23 lung = system: NCI-H23 lung
CAKI-1 renal = system: CAKI-1 renal
ACHN renal = system: ACHN renal
IGROV1 ovarian = system: IGROV1 ovarian
786-0 renal = system: 786-0 renal
DMS 273 small cell lung = system: DMS 273 small cell lung
A549 NSCLC = system: A549 NSCLC
SNB-19 CNS = system: SNB-19 CNS
OVCAR-4 ovarian = system: OVCAR-4 ovarian
SNB-75 CNS = system: SNB-75 CNS
SW-620 colon = system: SW-620 colon
SN12C renal = system: SN12C renal
M19-MEL melanoma = system: M19-MEL melanoma
KM12 colon = system: KM12 colon
DMS 114 small cell lung = system: DMS 114 small cell lung
MALME-3M melanoma = system: MALME-3M melanoma
DLD-1 colon = system: DLD-1 colon
MOLT-4 leukemia = system: MOLT-4 leukemia
SF-539 CNS = system: SF-539 CNS
SK-MEL-28 melanoma = system: SK-MEL-28 melanoma
SK-MEL-5 melanoma = system: SK-MEL-5 melanoma
RXF 393 renal = system: RXF 393 renal
K-562 leukemia = system: K-562 leukemia
EKVX NSCLC = system: EKVX NSCLC
MDA-MB-231 breast = system: MDA-MB-231 breast
MDA-MB-435 = system: MDA-MB-435
OVCAR-5 ovarian = system: OVCAR-5 ovarian
T-47D breast = system: T-47D breast
P388/ADR leukemia = system: P388/ADR leukemia
LOX IMVI melanoma = system: LOX IMVI melanoma
BT-549 breast = system: BT-549 breast
XF 498 CNS = system: XF 498 CNS
DU-145 prostate = system: DU-145 prostate
PC-3 prostate = system: PC-3 prostate
MCF7 breast = system: MCF7 breast
MDA-N = system: MDA-N
NCI-H226 lung = system: NCI-H226 lung
SR leukemia = system: SR leukemia
NCI/ADR-RES ovarian = system: NCI/ADR-RES ovarian
HOP-92 NSCLC = system: HOP-92 NSCLC
HS 578T breast = system: HS 578T breast

## COc1ccc(/C=C2\CCCC(C(NO)c3ccc(OC)cc3)C2=NO)cc1 (stereo not drawn)
TK-10 renal
  TGI: > 100000 nM
CCRF-CEM leukemia
  TGI: > 100000 nM
UO-31 renal
  TGI: 75700 nM
HOP-62 NSCLC
  TGI: > 100000 nM
HCT-15 colon
  TGI: > 100000 nM
SNB-78 CNS
  TGI: > 100000 nM
SK-MEL-2 melanoma
  TGI: > 100000 nM
COLO 205 colon
  TGI: > 100000 nM
A498 renal
  TGI: > 100000 nM
HCT-116 colon
  TGI: > 100000 nM
HOP-18 NSCLC
  TGI: > 100000 nM
OVCAR-8 ovarian
  TGI: > 100000 nM
SK-OV-3 ovarian
  TGI: > 100000 nM
RXF-631 renal
  TGI: > 100000 nM
HL-60(TB) leukemia
  TGI: 43100 nM
NCI-H522 lung
  TGI: 82000 nM
UACC-257 melanoma
  TGI: > 100000 nM
HT29 colon
  TGI: > 100000 nM
U251 CNS
  TGI: > 100000 nM
HCC-2998 colon
  TGI: > 100000 nM
M14 melanoma
  TGI: > 100000 nM
OVCAR-3 ovarian
  TGI: > 100000 nM
SF-268 CNS
  TGI: > 100000 nM
LXFL 529 NSCLC
  TGI: > 100000 nM
KM20L2 colon
  TGI: > 100000 nM
SF-295 CNS
  TGI: > 100000 nM
UACC-62 melanoma
  TGI: > 100000 nM
NCI-H460 lung
  TGI: > 100000 nM
RPMI-8226 leukemia
  TGI: > 100000 nM
NCI-H23 lung
  TGI: > 100000 nM
CAKI-1 renal
  TGI: > 100000 nM
ACHN renal
  TGI: > 100000 nM
IGROV1 ovarian
  TGI: > 100000 nM
786-0 renal
  TGI: > 100000 nM
DMS 273 small cell lung
  TGI: > 100000 nM
A549 NSCLC
  TGI: > 100000 nM
SNB-19 CNS
  TGI: > 100000 nM
OVCAR-4 ovarian
  TGI: > 100000 nM
SNB-75 CNS
  TGI: 79600 nM
SW-620 colon
  TGI: > 100000 nM
SN12C renal
  TGI: > 100000 nM
M19-MEL melanoma
  TGI: > 100000 nM
KM12 colon
  TGI: > 100000 nM
DMS 114 small cell lung
  TGI: > 100000 nM
MALME-3M melanoma
  TGI: > 100000 nM
DLD-1 colon
  TGI: > 100000 nM
MOLT-4 leukemia
  TGI: 80500 nM
SF-539 CNS
  TGI: 83300 nM
SK-MEL-28 melanoma
  TGI: 95300 nM
SK-MEL-5 melanoma
  TGI: 47600 nM
RXF 393 renal
  TGI: 96700 nM
K-562 leukemia
  TGI: > 100000 nM
EKVX NSCLC
  TGI: > 100000 nM

## C/C=C1\NC(=O)[C@H]2CSSCCC=C[C@H](CC(=O)N[C@H](C(C)C)C(=O)N2)OC(=O)[C@H](C(C)C)NC1=O
MDA-MB-231 breast
  GI50: < 10 nM
TK-10 renal
  GI50: < 10 nM
CCRF-CEM leukemia
  GI50: < 10 nM
  TGI: 273 nM and 53.4 nM and 102 nM
MDA-MB-435
  GI50: < 10 nM
  TGI: < 13.4 nM and 20.7 nM and 125 nM
UO-31 renal
  GI50: 26 nM and 14.5 nM
HOP-62 NSCLC
  GI50: < 10 nM
HCT-15 colon
  GI50: 203 nM and 55.1 nM
  TGI: 3750 nM and 1590 nM
SNB-78 CNS
  GI50: 12.3 nM
SK-MEL-2 melanoma
  GI50: < 10 nM and 0.0954 nM
COLO 205 colon
  GI50: < 10 nM and 0.172 nM
  TGI: < 10 nM and 0.811 nM
A498 renal
  GI50: < 10 nM
  TGI: < 10 nM and 0.402 nM
OVCAR-5 ovarian
  GI50: < 10 nM and 0.261 nM
T-47D breast
  GI50: < 10 nM
  TGI: < 10 nM and 10.3 nM
HCT-116 colon
  GI50: < 10 nM
  TGI: < 10 nM and 14.5 nM and 19.3 nM
HOP-18 NSCLC
  TGI: 54 nM and 71.9 nM
OVCAR-8 ovarian
  GI50: < 10 nM
  TGI: 66.8 nM and 72 nM and 154 nM
SK-OV-3 ovarian
  GI50: < 10 nM and 0.175 nM
  TGI: < 10 nM and 7.89 nM
HL-60(TB) leukemia
  GI50: < 10 nM and 0.299 nM
P388/ADR leukemia
  TGI: 125 nM
NCI-H522 lung
  GI50: < 10 nM and 0.105 nM
  TGI: < 10 nM and 0.166 nM
LOX IMVI melanoma
  GI50: < 10 nM and 0.122 nM
  TGI: < 10 nM and 1.04 nM
UACC-257 melanoma
  GI50: < 10 nM and 0.137 nM
HT29 colon
  GI50: < 10 nM
  TGI: < 10 nM and 11.6 nM and 26.2 nM
BT-549 breast
  GI50: < 10 nM and 0.0646 nM and < 11.1 nM
U251 CNS
  GI50: < 10 nM and 0.136 nM
  TGI: < 10 nM and 1.47 nM and < 25.2 nM
XF 498 CNS
  TGI: 15.5 nM and 62.4 nM
HCC-2998 colon
  GI50: 0.813 nM
  TGI: < 10 nM and 4.48 nM
M14 melanoma
  GI50: < 10 nM
  TGI: 263 nM and 82.6 nM and 206 nM
DU-145 prostate
  GI50: < 10 nM
  TGI: 226 nM and 64.5 nM and 199 nM
PC-3 prostate
  GI50: < 10 nM
OVCAR-3 ovarian
  GI50: < 10 nM
  TGI: < 10.8 nM and 2.94 nM
SF-268 CNS
  GI50: < 10 nM
  TGI: 20.6 nM and 40.1 nM
KM20L2 colon
  TGI: 7.96 nM
SF-295 CNS
  GI50: < 10 nM
  TGI: < 10 nM and 13 nM
MCF7 breast
  GI50: < 10 nM
  TGI: 14.8 nM and 9.81 nM and 35.2 nM
UACC-62 melanoma
  GI50: < 10 nM
  TGI: < 10 nM and 11.3 nM
NCI-H460 lung
  GI50: < 10 nM
RPMI-8226 leukemia
  GI50: < 10 nM
NCI-H23 lung
  GI50: < 10 nM
CAKI-1 renal
  GI50: < 33.9 nM
  TGI: 77.2 nM and 24.4 nM and < 10.4 nM
ACHN renal
  GI50: < 10 nM
  TGI: 45.9 nM and 36.4 nM
IGROV1 ovarian
  GI50: < 10 nM and 0.421 nM
MDA-N
  TGI: 17.6 nM and < 31.9 nM
786-0 renal
  GI50: < 10 nM and 0.554 nM
DMS 273 small cell lung
  TGI: 10.2 nM
A549 NSCLC
  GI50: < 10 nM
  TGI: < 12 nM and 20.5 nM and 18.5 nM
SNB-19 CNS
  GI50: < 10 nM
  TGI: 30.1 nM and 53.8 nM
OVCAR-4 ovarian
  GI50: 10.9 nM and < 10.2 nM
  TGI: 201 nM and 89.2 nM and 619 nM
SNB-75 CNS
  GI50: < 10.4 nM
NCI-H226 lung
  GI50: < 10 nM
  TGI: 268 nM and 31.7 nM and < 31.2 nM
SW-620 colon
  GI50: < 10 nM
  TGI: < 10 nM and 19.5 nM and < 16.1 nM
SN12C renal
  GI50: < 10 nM
SR leukemia
  GI50: < 10 nM and 0.119 nM
  TGI: 221 nM and 28.6 nM and 47 nM
M19-MEL melanoma
  TGI: 56.4 nM and 65 nM
KM12 colon
  GI50: < 10 nM
DMS 114 small cell lung
  TGI: 8.85 nM
MALME-3M melanoma
  GI50: < 10 nM and 0.0209 nM
DLD-1 colon
  GI50: 10.2 nM
  TGI: 289 nM
MOLT-4 leukemia
  GI50: < 10 nM
NCI/ADR-RES ovarian
  GI50: 1980 nM and 676 nM
  TGI: 27700 nM and 11200 nM
SF-539 CNS
  GI50: < 10 nM
  TGI: 179 nM and 51 nM and 46.9 nM
SK-MEL-28 melanoma
  GI50: < 10 nM
  TGI: < 10 nM and 17.5 nM and < 12.2 nM
SK-MEL-5 melanoma
  GI50: < 10 nM
  TGI: < 10 nM and 0.359 nM
RXF 393 renal
  GI50: < 10 nM
  TGI: 10.1 nM and 2.53 nM
HOP-92 NSCLC
  GI50: < 10 nM
  TGI: < 10 nM and 16.1 nM and < 32.4 nM
K-562 leukemia
  GI50: < 10 nM and 0.147 nM
EKVX NSCLC
  GI50: < 10 nM
HS 578T breast
  GI50: < 10 nM
  TGI: 43.9 nM
